Peptide text beside a SMILES is read from it.
Assays:
MV Edmonston strain = test: Viral plaque reduction assay, measles virus in Vero cells; format: cell-based; details: for EC50: plaque reduction, MV Edmonston strain, mean ± SD; for EC50 / SI, measles virus (Vero cells): Vero cells; for SI, measles virus (Vero cells): selectivity index, ratio of CC50 relative to EC50
Method: (§1) African green monkey kidney (Vero) cells and Vero cells expressing human SLAM (Vero/SLAM cells) were used in all experiments. The growth medium for Vero cells comprised minimal essential medium (MEM) supplemented with 10% heat-inactivated newborn bovine serum, penicillin G (100 IU/ml), streptomycin (100 μg/ml), and L-glutamine (300 μg/ml). The same growth medium, which was further supplemented with G418 (400 μg/ml), was used for Vero/SLAM cells. Cells were seeded into the wells (22 mm) of 12-well tissue culture plates at 1 × 10^5 cells/well and incubated at 37°C in a 10% CO2 incubator for 3 days, at which time they had just reached confluence. The virus strains used were human MV Edmonston strain and SSPE Yamagata-1 [34], which was originally isolated from the brain of an SSPE patient. The Edmonston strain of MV was used to inoculate Vero/SLAM cells and harvested after freeze–thawing infected cells. The SSPE Yamagata-1 strain was cultured in Vero/SLAM cells, harvested by trypsinization, prepared as an infected cell suspension in the Vero/SLAM cell medium supplemented with 10% dimethyl sulfoxide, and stored at −80°C until use.
(§2) Screening was performed to evaluate the antiviral effects of each synthetic peptide against the MV and SSPE viruses using the viral plaque reduction assay. Based on the results of the peptide screening, the 50% effective concentration (EC50), i.e., the concentration of compounds required to inhibit virus plaque formation by 50%, was also determined. The Human MV Edmonston strain was used to produce cell-free virions, which yielded a reproducible number of syncytia [generally 200–300 plaque-forming units (PFUs)] in the control wells. The SSPE virus was also used to yield a reproducible number of syncytia (generally 70–150 PFU) in control wells. In the peptide screening assay, each synthetic peptide was used at a concentration of 10 μM. IFN-α and enfuvirtide, a peptide fusion inhibitor of HIV-1, were used as controls at a concentration of 250 IU/ml and 10 μM, respectively.

SSPE Yamagata-1 strain [1] = test: Viral plaque reduction assay, SSPE virus in Vero/SLAM cells; format: cell-based, SSPE virus (variant measles virus); details: for EC50: plaque reduction, SSPE Yamagata-1 strain, mean ± SD; for SI, SSPE virus (Vero/SLAM cells): selectivity index, ratio of CC50 relative to EC50
Method: as §1, §2

SSPE Yamagata-1 strain [2] = test: Viral plaque reduction assay, SSPE virus in Vero cells; format: cell-based, SSPE virus (variant measles virus); details: for inhibition of plaque formation compared with the control group, SSPE Yamagata-1 strain (peptide screening): peptide 10 μM, Vero cells and Vero/SLAM cells (Fig 2C), duplicate, at least twice independently; for EC50: plaque reduction, SSPE Yamagata-1 strain, mean ± SD; for EC50 / SI, SSPE virus (Vero cells): Vero cells; for SI, SSPE virus (Vero cells): selectivity index, ratio of CC50 relative to EC50
Method: as §1, §2

Vero cells = test: Methyl tetrazolium cytotoxicity assay, Vero cells; format: cell-based, African green monkey; details: confluent Vero cells, 24 h, 37°C
Method: (§3) Peptide cytotoxicity was determined using the methyl tetrazolium assay. Five-fold serial dilutions of peptides were added to confluent Vero or Vero/SLAM cells. Cells were then incubated at 37°C for 24 h, and the number of viable cells was determined using 3-(4,5-dimethyllthiazol-2-yl)-2,5-diphenylterazolium bromide (Sigma–Aldrich, Tokyo, Japan). The 50% cytotoxic concentration (CC50), which was defined as the concentration required to reduce the cell viability by 50% relative to that of untreated controls, was determined. The selectivity index (SI) was defined as the ratio of the CC50 relative to the EC50 value.

Vero/SLAM cells = test: Methyl tetrazolium cytotoxicity assay, Vero/SLAM cells; format: cell-based, African green monkey; details: confluent Vero/SLAM cells, 24 h, 37°C
Method: as §3

[3] = In vivo toxicity, mice administered peptides alone; design: species or system BALB/cAJcl-nu/nu mice; details: peptide 100 μM intracranial, no virus infection
Method: Based on a previous report, but with slight modifications, 3-week-old female BALB/cAJcl-nu/nu mice (CLEA Japan Inc., Tokyo, Japan) were used in the animal experiments. Mice were divided in four groups (n = 6 for each cage) and housed with free access to both water and food and monitored daily. The mice were SSPE virus-infected or mock-infected (MEM alone) intracranially. An SSPE virus-infected cell suspension containing 250 PFU/ 30 μl (100% lethal dose) was inoculated into the subarachnoid space of nude mice using a 27-gauge double needle at a depth of 2 mm. Each compound was prepared at a concentration of 100 μM and was injected intracranially at 0 (mixed with viruses), 6, and 24 h after the initial virus inoculation. All injections were performed under inhalational anesthesia with isoflurane. Each mouse was checked for neurological symptoms and weighed daily. The ethical endpoint was defined as <75% of their maximum weight because most mice would die within 24 h. On attaining this endpoint, the mice were sacrificed by cervical dislocation under inhalational anesthesia with isoflurane. In this experiment, five mice died of natural causes before the ethical endpoint; however, all mice had neurological symptoms and 9.5%, 13.2%,14.5%, 15.8%, 16.4% weight loss (one each) relative to their maximum weight. This study was approved by the control of the Animal Research Committee in accordance with the Guidelines on Animal Experiments in Fukushima Medical University and the Rules for the Protection and Care of Animals (approval number: 23038).

SSPE virus = test: Time-of-addition experiments, SSPE virus in Vero cells; format: cell-based, SSPE virus (variant measles virus)
Method: Synthetic peptides, M1 and M2EK (10 μM each) were used in time-of-addition experiments. Each peptide was added to Vero cells at three distinct time points: prior to infection (pretreatment with the compound), at the same time as the virus infection (simultaneous infection), or post-infection (post-entry). The SSPE virus was prepared to yield a reproducible number of syncytia in untreated control wells (approximately 50–100/well). In the pretreatment assay, peptide was added to confluent cells and incubated at 37°C for 30 min, and the cell cultures were washed with MEM before viral inoculation. Cells were then challenged with the SSPE virus at 0°C for 30 min. In the simultaneous infection assay, SSPE virus with peptide was inoculated at 0°C for 30 min. After the adsorption, the cell cultures were subsequently washed with MEM, and growth medium containing 0.75% methylcellulose was overlaid on the cell cultures, followed by incubation for 3 days in both pretreatment and simultaneous infection assays. In the post-entry assay, cells were challenged with the SSPE virus at 0°C for 30 min. After adsorption, the cell cultures were subsequently washed with MEM and peptide, which was prepared in growth medium containing 0.75% methylcellulose, was subsequently overlaid on the cell cultures at distinct time points. The starting point when cells were incubated at 0°C for 30 min was defined as t0.

Row | Molecule | inhibition of MV Edmonston plaque formation compared with the control group (peptide screening) (MV Edmonston strain; peptide 10 μM (Fig 2C), duplicate, at least twice independently) | EC50 (MV Edmonston strain) [nM] | EC50 (SSPE Yamagata-1 strain [1]) [nM] | inhibition of plaque formation compared with the control group, SSPE Yamagata-1 strain (peptide screening) (SSPE Yamagata-1 strain [2]) | EC50 (SSPE Yamagata-1 strain [2]) [nM] | SI, measles virus (Vero cells) (MV Edmonston strain) | CC50, SSPE virus (Vero cells) (Vero cells) [µM] | CC50, measles virus (Vero cells) (Vero cells) [µM] | CC50, SSPE virus (Vero/SLAM cells) (Vero/SLAM cells) [µM] | SI, SSPE virus (Vero/SLAM cells) (SSPE Yamagata-1 strain [1]) | SI, SSPE virus (Vero cells) (SSPE Yamagata-1 strain [2]) | survival of mice administered with peptides alone, with no symptoms [3] [days] | viral inhibitory effect, peptide added post-infection (post-entry) (SSPE virus; peptide 10 μM overlaid at distinct time points after adsorption) | viral plaque numbers, peptide added before viral adsorption or at the same time as virus inoculation (SSPE virus; peptide 10 μM, pretreatment 37°C 30 min or simultaneous with SSPE virus 0°C 30 min, compared with control)
1 | Enfuvirtide | lower antiviral activity | > 10000 | > 10000 | lower antiviral activity | > 10000 |  |  |  |  |  |  |  |  | 
2 | CC[C@H](C)[C@H](NC(C)=O)C(=O)N[C@@H](CCC(=O)O)C(=O)N[C@@H](CCC(=O)O)C(=O)N[C@@H](CCC(=O)O)C(=O)N[C@@H](CCCNC(=N)N)C(=O)N[C@@H](CCCCN)C(=O)N[C@@H](CCCCN)C(=O)N[C@H](C(=O)N[C@@H](CCC(=O)O)C(=O)N[C@@H](CCC(=O)O)C(=O)N[C@@H](CC(N)=O)C(=O)N[C@@H](CC(C)C)C(=O)N[C@@H](CCCCN)C(=O)N[C@@H](CCCCN)C(=O)N[C@@H](C)C(=O)N[C@@H](CCC(=O)O)C(=O)N[C@@H](CCC(=O)O)C(=O)N[C@@H](CCCCN)C(=O)N[C@@H](CC(C)C)C(=O)N[C@@H](CCCCN)C(=O)N[C@@H](CCCCN)C(=O)N[C@@H](C)C(=O)N[C@@H](CCC(=O)O)C(=O)N[C@@H](CCC(=O)O)C(=O)N[C@@H](CC(C)C)C(=O)N[C@@H](CC(C)C)C(=O)N[C@@H](CCCCN)C(=O)N[C@@H](CCCCN)C(=O)N[C@@H](CO)C(=O)N[C@@H](CCC(=O)O)C(=O)N[C@@H](CCC(=O)O)C(=O)N[C@H](C(=O)N[C@@H](CC(C)C)C(=O)N[C@@H](CCCCN)C(=O)N[C@@H](CCCCN)C(N)=O)[C@@H](C)CC)C(C)C [Peptide M1EK] (Ac-IEEERKKVEENLKKAEEKLKKAEELLKKSEEILKK-NH2) |  |  | 170 ± 20 | > 97% | 120 ± 50 |  |  |  |  |  |  |  |  | 
3 | CC[C@H](C)[C@H](NC(=O)[C@H](C)NC(=O)[C@H](CC(N)=O)NC(=O)CNC(=O)[C@H](CC(C)C)NC(=O)[C@H](CC(N)=O)NC(=O)[C@@H](NC(=O)CNC(=O)[C@@H](NC(C)=O)C(C)C)[C@@H](C)O)C(=O)N[C@@H](C)C(=O)N[C@@H](CCCCN)C(=O)N[C@@H](CC(C)C)C(=O)N[C@@H](CCC(=O)O)C(=O)N[C@@H](CC(=O)O)C(=O)N[C@@H](C)C(=O)N[C@@H](CCCCN)C(=O)N[C@@H](CCC(=O)O)C(=O)N[C@@H](CC(C)C)C(=O)N[C@@H](CC(C)C)C(=O)N[C@@H](CCC(=O)O)C(=O)N[C@@H](CO)C(=O)N[C@@H](CO)C(=O)N[C@@H](CC(=O)O)C(=O)N[C@@H](CCC(N)=O)C(=O)N[C@H](C(=O)N[C@@H](CC(C)C)C(=O)N[C@@H](CCCNC(=N)N)C(=O)N[C@@H](CO)C(=O)N[C@@H](CCSC)C(=O)N[C@@H](CCCCN)C(=O)NCC(=O)N[C@@H](CC(C)C)C(=O)N[C@@H](CO)C(=O)N[C@@H](CO)C(=O)N[C@H](C(N)=O)[C@@H](C)O)[C@@H](C)CC [Peptide M2] |  | 120 ± 40 | 480 ± 220 |  | 260 ± 170 | >805 | >100 | >100 | >100 | >209 | >377 |  |  | 
4 | CC[C@H](C)[C@H](NC(C)=O)C(=O)N[C@@H](CO)C(=O)N[C@@H](CC(C)C)C(=O)N[C@@H](CCC(=O)O)C(=O)N[C@@H](CCCNC(=N)N)C(=O)N[C@@H](CC(C)C)C(=O)N[C@@H](CC(=O)O)C(=O)N[C@H](C(=O)NCC(=O)N[C@H](C(=O)N[C@@H](CC(N)=O)C(=O)N[C@@H](CC(C)C)C(=O)NCC(=O)N[C@@H](CC(N)=O)C(=O)N[C@@H](C)C(=O)N[C@H](C(=O)N[C@@H](C)C(=O)N[C@@H](CCCCN)C(=O)N[C@@H](CC(C)C)C(=O)N[C@@H](CCC(=O)O)C(=O)N[C@@H](CC(=O)O)C(=O)N[C@@H](C)C(=O)N[C@@H](CCCCN)C(=O)N[C@@H](CCC(=O)O)C(=O)N[C@@H](CC(C)C)C(=O)N[C@@H](CC(C)C)C(=O)N[C@@H](CCC(=O)O)C(=O)N[C@@H](CO)C(=O)N[C@@H](CO)C(=O)N[C@@H](CC(=O)O)C(=O)N[C@@H](CCC(N)=O)C(=O)N[C@H](C(=O)N[C@@H](CC(C)C)C(=O)N[C@@H](CCCNC(=N)N)C(=O)N[C@@H](CO)C(N)=O)[C@@H](C)CC)[C@@H](C)CC)[C@@H](C)O)C(C)C [Peptide M1] |  | 30 ± 10 | 10 ± 10 | > 97% | 10 ± 10 | >3663 |  |  |  | >9524 | >7519 | > 45 | observed in a time-dependent manner, particularly within 24 h | no reduction in viral plaque numbers
5 | enfuvirtide |  |  |  |  |  |  | >100 | >100 | >100 |  |  | > 45 |  | 
